Reference: PubChem BioAssay AID180 (DTP/NCI, 2004)
Several values for one entry are separate records, joined by “and”; a condition that tells them apart may be missing. Equal values may be shown once.

Tested on: BDF1 mice, Adenocarcinoma 755 s.c., tumor weight T/C
Experiment: NCI In Vivo Anticancer Drug Screen. Data for tumor model Adenocarcinoma 755 (subcutaneous) in B6D2F1 (BDF1) mice
Settings: endpoint: mean tumor weight, higher = larger tumour
Method: The antitumor activity of compounds was measured in mice bearing transplantable tumors. Survival or tumor size were measured and the results are expressed as the measurement made in the treated group (T) divided by the measurement made in the vehicle treated control group (C). The tumor model used in this assay is Adenocarcinoma 755 (subcutaneous) in B6D2F1 (BDF1) mice

[1] = dose: 30.0 mg/kg/injection, schedule: Q01DX011 (ip), vehicle: carboxymethylcellulose (CMC)
[2] = dose: 60.0 mg/kg/injection, schedule: Q01DX011 (ip), vehicle: carboxymethylcellulose (CMC)
[3] = dose: 120.0 mg/kg/injection, schedule: Q01DX011 (ip), vehicle: carboxymethylcellulose (CMC)
[4] = dose: 31.0 mg/kg/injection, schedule: Q01DX011 (ip), vehicle: methylcellulose (MC)
[5] = dose: 62.0 mg/kg/injection, schedule: Q01DX011 (ip), vehicle: methylcellulose (MC)
[6] = dose: 25.0 mg/kg/injection, schedule: Q01DX011 (ip), vehicle: methylcellulose (MC)
[7] = dose: 75.0 mg/kg/injection, schedule: Q01DX011 (ip), vehicle: methylcellulose (MC)
[8] = dose: 225.0 mg/kg/injection, schedule: Q01DX011 (ip), vehicle: methylcellulose (MC)
[9] = dose: 37.5 mg/kg/injection, schedule: Q01DX011 (ip), vehicle: carboxymethylcellulose (CMC)
[10] = dose: 300.0 mg/kg/injection, schedule: Q01DX011 (ip), vehicle: carboxymethylcellulose (CMC)
[11] = dose: 125.0 mg/kg/injection, schedule: Q01DX011 (ip), vehicle: methylcellulose (MC)
[12] = dose: 250.0 mg/kg/injection, schedule: Q01DX011 (ip), vehicle: methylcellulose (MC)

For `CN(C)S(=O)(=O)c1ncnc2nc[nH]c12`, the T/C (dose: 32.0 mg/kg/injection, schedule: Q01DX011 (ip), vehicle: other) was 26 % of control, the T/C (dose: 128.0 mg/kg/injection, schedule: Q01DX011 (ip), vehicle: other) was 7 % of control and the T/C (dose: 256.0 mg/kg/injection, schedule: Q01DX011 (ip), vehicle: other) was 6 % of control.

For `NS(=O)(=O)c1nc(S(=O)(=O)O)c2[nH]cnc2n1`, the T/C [1] was 95 % of control, the T/C [2] was 76 % of control and the T/C [3] was 86 % of control.

`CCCCN=NNc1nc[nH]c1C(N)=O` was tested, and the T/C (dose: 16.0 mg/kg/injection, schedule: Q01DX011 (ip), vehicle: methylcellulose (MC)) was 124 % of control, the T/C [4] was 75 % of control and the T/C [5] was 79 % of control.

In the case of `O=C1N(Br)C(=O)C(c2ccc(Cl)cc2)(c2ccc(Cl)cc2)N1Br`, the T/C (dose: 1.7 mg/kg/injection, schedule: Q01DX011 (ip), vehicle: carboxymethylcellulose (CMC)) is reported as 42 % of control, the T/C (dose: 3.5 mg/kg/injection, schedule: Q01DX011 (ip), vehicle: carboxymethylcellulose (CMC)) is reported as 76 % of control and the T/C (dose: 7.0 mg/kg/injection, schedule: Q01DX011 (ip), vehicle: carboxymethylcellulose (CMC)) is reported as 91 % of control. The T/C (dose: 14.0 mg/kg/injection, schedule: Q01DX011 (ip), vehicle: carboxymethylcellulose (CMC)) was 35 % of control and 39 % of control and 43 % of control, the T/C (dose: 28.0 mg/kg/injection, schedule: Q01DX011 (ip), vehicle: carboxymethylcellulose (CMC)) was 35 % of control and 49 % of control and the T/C [1] was 22 % of control and 38 % of control. For the same molecule, the T/C (dose: 56.0 mg/kg/injection, schedule: Q01DX011 (ip), vehicle: carboxymethylcellulose (CMC)) was 20 % of control, the T/C [2] was 29 % of control and 35 % of control and the T/C (dose: 112.0 mg/kg/injection, schedule: Q01DX011 (ip), vehicle: carboxymethylcellulose (CMC)) was 38 % of control. For the same molecule, the T/C [3] was 14 % of control.

With `O=c1[nH]cc(N(CCCl)CCCl)c(=O)[nH]1` the T/C (dose: 0.17 mg/kg/injection, schedule: Q01DX011 (ip), vehicle: carboxymethylcellulose (CMC)) was 82 % of control, the T/C (dose: 0.21 mg/kg/injection, schedule: Q01DX011 (ip), vehicle: carboxymethylcellulose (CMC)) was 93 % of control and 94 % of control and the T/C (dose: 0.34 mg/kg/injection, schedule: Q01DX011 (ip), vehicle: carboxymethylcellulose (CMC)) was 86 % of control. For the same molecule, the T/C (dose: 0.42 mg/kg/injection, schedule: Q01DX011 (ip), vehicle: carboxymethylcellulose (CMC)) was 53 % of control and 54 % of control, the T/C (dose: 0.67 mg/kg/injection, schedule: Q01DX011 (ip), vehicle: carboxymethylcellulose (CMC)) was 45 % of control and the T/C (dose: 0.68 mg/kg/injection, schedule: Q01DX011 (ip), vehicle: carboxymethylcellulose (CMC)) was 77 % of control and 80 % of control. The T/C (dose: 0.83 mg/kg/injection, schedule: Q01DX011 (ip), vehicle: carboxymethylcellulose (CMC)) was 58 % of control, the T/C (dose: 1.11 mg/kg/injection, schedule: Q01DX011 (ip), vehicle: carboxymethylcellulose (CMC)) was 59 % of control and the T/C (dose: 1.13 mg/kg/injection, schedule: Q01DX011 (ip), vehicle: carboxymethylcellulose (CMC)) was 40 % of control. For the same molecule, the T/C (dose: 1.35 mg/kg/injection, schedule: Q01DX011 (ip), vehicle: carboxymethylcellulose (CMC)) was 22 % of control, the T/C (dose: 1.67 mg/kg/injection, schedule: Q01DX011 (ip), vehicle: carboxymethylcellulose (CMC)) was 18 % of control and the T/C (dose: 1.69 mg/kg/injection, schedule: Q01DX011 (ip), vehicle: carboxymethylcellulose (CMC)) was 27 % of control and 28 % of control.

`CCCCn1nnc2c(Nc3ccc(Cl)cc3)nc(N)nc21` was tested, and the T/C (dose: 62.5 mg/kg/injection, schedule: Q01DX011 (ip), vehicle: carboxymethylcellulose (CMC)) was 96 % of control, the T/C (dose: 125.0 mg/kg/injection, schedule: Q01DX011 (ip), vehicle: carboxymethylcellulose (CMC)) was 89 % of control and the T/C (dose: 250.0 mg/kg/injection, schedule: Q01DX011 (ip), vehicle: carboxymethylcellulose (CMC)) was 68 % of control.

For `CC1CCc2ccccc2N1C(=O)CCCl` (stereo unspecified), the T/C [6] was 48 % of control, the T/C [7] was 82 % of control and the T/C [8] was 50 % of control.

With `Cn1c(=O)c2c(nc(C#N)n2C)n(C)c1=O` the T/C [6] was 104 % of control, the T/C [7] was 102 % of control and the T/C [8] was 58 % of control.

With `Nc1nc(SCc2ccccc2[N+](=O)[O-])c2[nH]cnc2n1` the T/C (dose: 3.7 mg/kg/injection, schedule: Q01DX011 (ip), vehicle: carboxymethylcellulose (CMC)) was 95 % of control, the T/C (dose: 7.5 mg/kg/injection, schedule: Q01DX011 (ip), vehicle: carboxymethylcellulose (CMC)) was 90 % of control and the T/C (dose: 15.0 mg/kg/injection, schedule: Q01DX011 (ip), vehicle: carboxymethylcellulose (CMC)) was 68 % of control. For the same molecule, the T/C [1] was 67 % of control, the T/C [9] was 2 % of control and the T/C (dose: 75.0 mg/kg/injection, schedule: Q01DX011 (ip), vehicle: carboxymethylcellulose (CMC)) was 1 % of control. For the same molecule, the T/C [10] was 4 % of control.

`CCCCSc1nc(N)nc2c1ncn2CC(C)CC` (stereo unspecified) was tested, and the T/C [9] was 30 % of control and 47 % of control, the T/C (dose: 150.0 mg/kg/injection, schedule: Q01DX011 (ip), vehicle: carboxymethylcellulose (CMC)) was 2 % of control and 18 % of control and the T/C [10] was 2 % of control.

With `CC(=O)OCC(=O)[C@@]1(O)CC[C@H]2[C@@H]3CCC4=CC(=O)[C@H](C)C[C@]4(C)[C@H]3[C@@H](O)C[C@@]21C` the T/C (dose: 6.2 mg/kg/injection, schedule: Q01DX011 (sc), vehicle: steriod suspending solution) was 52 % of control, the T/C (dose: 12.5 mg/kg/injection, schedule: Q01DX011 (sc), vehicle: steriod suspending solution) was 43 % of control and the T/C (dose: 25.0 mg/kg/injection, schedule: Q01DX011 (sc), vehicle: steriod suspending solution) was 13 % of control and 38 % of control. The T/C (dose: 50.0 mg/kg/injection, schedule: Q01DX011 (sc), vehicle: steriod suspending solution) was 32 % of control, the T/C (dose: 100.0 mg/kg/injection, schedule: Q01DX011 (sc), vehicle: steriod suspending solution) was 15 % of control and the T/C (dose: 400.0 mg/kg/injection, schedule: Q01DX011 (sc), vehicle: steriod suspending solution) was 4 % of control.

With `CC1CN(Cc2ccco2)C(=S)N(c2ccccc2)C1=O` (stereo unspecified) the T/C (dose: 15.0 mg/kg/injection, schedule: Q01DX011 (ip), vehicle: methylcellulose (MC)) was 81 % of control, the T/C [4] was 84 % of control and the T/C [5] was 99 % of control. For the same molecule, the T/C [11] was 84 % of control and the T/C [12] was 98 % of control.

`Nc1nc(SCc2ccc(Cl)cc2Cl)c2ncn(C3OC(CO)C(O)C3O)c2n1` (stereo unspecified) was tested, and the T/C (dose: 4.69 mg/kg/injection, schedule: Q01DX011 (ip), vehicle: methylcellulose (MC)) was 51 % of control, the T/C (dose: 9.38 mg/kg/injection, schedule: Q01DX011 (ip), vehicle: methylcellulose (MC)) was 49 % of control and the T/C (dose: 18.75 mg/kg/injection, schedule: Q01DX011 (ip), vehicle: methylcellulose (MC)) was 21 % of control. The T/C (dose: 37.5 mg/kg/injection, schedule: Q01DX011 (ip), vehicle: methylcellulose (MC)) was 2 % of control.

For `CCCCn1cnc2c(SCc3ccccc3Cl)nc(N)nc21`, the T/C (dose: 62.5 mg/kg/injection, schedule: Q01DX011 (ip), vehicle: methylcellulose (MC)) was 24 % of control, the T/C [11] was 13 % of control and the T/C [12] was 5 % of control.

For `COc1cc(-c2ccc(Nc3ccccc3C(=O)O)c(OC)c2)ccc1N`, the T/C (dose: 10.0 mg/kg/injection, schedule: Q01DX011 (ip), vehicle: saline) was 108 % of control, the T/C (dose: 20.0 mg/kg/injection, schedule: Q01DX011 (ip), vehicle: saline) was 36 % of control and the T/C (dose: 40.0 mg/kg/injection, schedule: Q01DX011 (ip), vehicle: saline) was 39 % of control. For the same molecule, the T/C (dose: 80.0 mg/kg/injection, schedule: Q01DX011 (ip), vehicle: saline) was 17 % of control.

With `NC(N)=Nc1nc2ccccc2s1` the T/C (dose: 6.25 mg/kg/injection, schedule: Q01DX011 (ip), vehicle: carboxymethylcellulose (CMC)) was 108 % of control, the T/C (dose: 6.25 mg/kg/injection, schedule: Q01DX011 (ip), vehicle: other) was 84 % of control and the T/C (dose: 6.25 mg/kg/injection, schedule: Q01DX011 (ip), vehicle: water) was 105 % of control. For the same molecule, the T/C (dose: 12.5 mg/kg/injection, schedule: Q01DX011 (ip), vehicle: carboxymethylcellulose (CMC)) was 53 % of control, the T/C (dose: 25.0 mg/kg/injection, schedule: Q01DX011 (ip), vehicle: other) was 90 % of control and the T/C (dose: 25.0 mg/kg/injection, schedule: Q01DX011 (ip), vehicle: water) was 84 % of control. The T/C (dose: 50.0 mg/kg/injection, schedule: Q01DX011 (ip), vehicle: water) was 48 % of control.

`CS(=O)(=O)OCCC(=O)NCCCNC(=O)CCOS(C)(=O)=O` was tested, and the T/C (dose: 28.0 mg/kg/injection, schedule: Q01DX011 (ip), vehicle: methylcellulose (MC)) was 85 % of control and the T/C (dose: 52.0 mg/kg/injection, schedule: Q01DX011 (ip), vehicle: methylcellulose (MC)) was 49 % of control.
